Laboratory results published in paper PMC3798069 (Journal of medicinal chemistry, 2012).
Marks after values point to notes of the source that are not given here.

Tests used:
Format in all cases: cell-based
wild-type CqsS = wild-type CqsS (Vibrio cholerae serotype O1, UniProt Q9KM66); settings: for QS activity (in words): tested up to 50,000 nM; for maximal % response at the maximum concentration tested: at 50,000 nM, with respect to CAI-1 = 100%
CqsS C170A = CqsS C170A (Vibrio cholerae serotype O1, UniProt Q9KM66, C170A); test: Light-based agonist bioassay with CqsS C170A mutant strain
CqsS C170Y = CqsS C170Y (Vibrio cholerae serotype O1, UniProt Q9KM66, C170Y); test: Light-based agonist bioassay with CqsS C170Y mutant strain; settings: at 50,000 nM

## CCCCCCCCO [1-octanol]
wild-type CqsS
  QS activity (in words): no QS activity

## CCC(O)C(=O)O (stereo not shown) [2-hydroxybutyric acid]
wild-type CqsS
  QS activity (in words): no QS activity

## CCCCCCCCCC(=O)[C@@H](O)CC [compound 1, S-3-hydroxytridecan-4-one, reference compound]
CqsS C170A; with respect to CAI-1 set at 100%
  % Response (percent maximal bioluminescence): 100±44%
CqsS C170Y
  maximal % response at the maximum concentration tested: 20 ^c %

## CCCCCCCCOC(=O)C(O)CC (stereo not shown) [compound 9, Octyl 2-hydroxybutanoate]
CqsS C170Y
  maximal % response at the maximum concentration tested: 66 ^c %

## CCCCOC(=O)C(O)CC (stereo not shown) [compound 17, Butyl 2-hydroxybutanoate]
wild-type CqsS
  maximal % response at the maximum concentration tested: 23 ^c %
  QS activity (in words): nearly complete loss of QS activity

## CCCCCCOC(=O)C(O)CC (stereo not shown) [compound 18, Hexyl 2-hydroxybutanoate]
wild-type CqsS
  fold less active (higher EC50) than C8-ester-CAI-1 (9): greater than 4 fold

## CCCCCCCOC(=O)C(O)CC (stereo not shown) [compound 19, Heptyl 2-hydroxybutanoate]
wild-type CqsS
  fold less active (higher EC50) than C8-ester-CAI-1 (9): 2 fold

## CCCCCCCCCOC(=O)C(O)CC (stereo not shown) [compound 20, Nonyl 2-hydroxybutanoate]
wild-type CqsS
  fold more active (lower EC50) than C8-ester-CAI-1 (9): 2 fold

## CCCCCCCCCCOC(=O)C(O)CC (stereo not shown) [compound 21, Decyl 2-hydroxybutanoate]
wild-type CqsS
  fold less active (higher EC50) than C8-ester-CAI-1 (9): greater than 4 fold

## CCCCCOCCOC(=O)C(O)CC (stereo not shown) [compound 22, 2-(Pentyloxy)ethyl 2-hydroxybutanoate]
wild-type CqsS
  fold less active (higher EC50) than C8-ester-CAI-1 (9): > 13 fold

## CCOCCOCCOC(=O)C(O)CC (stereo not shown) [compound 23, 2-Hydroxy-2-(2-ethoxyethoxy)ethylbutanoate]
wild-type CqsS
  maximal % response at the maximum concentration tested: 31 ^c %
  QS activity (in words): only minimal QS activity

## CCCCCCOCCOC(=O)C(O)CC (stereo not shown) [compound 24, 2-(Hexyloxy)ethyl 2-hydroxybutanoate]
wild-type CqsS
  fold less active (higher EC50) than C8-ester-CAI-1 (9): > 13 fold

## CCCCC/C=C/COC(=O)C(O)CC (stereo not shown) [compound 26, (E)-Oct-2-en-1-yl 2-hydroxybutanoate]
wild-type CqsS
  fold more active (lower EC50) than C8-ester-CAI-1 (9): 3 fold

## CCCC/C=C/CCOC(=O)C(O)CC (stereo not shown) [compound 29, (E)-Oct-3-en-1-yl 2-hydroxybutanoate]
wild-type CqsS
  fold less active (higher EC50) than C8-ester-CAI-1 (9): > 4 fold

## CCC/C=C/CCCOC(=O)C(O)CC (stereo not shown) [compound 32, (E)-Oct-4-enyl 2-hydroxybutanoate]
wild-type CqsS
  fold less active (higher EC50) than C8-ester-CAI-1 (9): 1.5 fold

## CC/C=C/CCCCOC(=O)C(O)CC (stereo not shown) [compound 34, (E)-Oct-5-enyl 2-hydroxybutanoate]
wild-type CqsS
  fold less active (higher EC50) than C8-ester-CAI-1 (9): > 4 fold

## CCC(O)C(=O)OCCCCc1ccccc1 (stereo not shown) [compound 37, 4-Phenylbutyl 2-hydroxybutyrate]
CqsS C170A; at 50,000 nM
  maximal % response at the maximum concentration tested: 16 ^c %
CqsS C170Y
  maximal % response at the maximum concentration tested: 22 ^c %

## CCC(O)C(=O)OCCCCCc1ccccc1 (stereo not shown) [compound 38, 5-Phenylpentyl 2-hydroxybutyrate]
CqsS C170Y
  maximal % response at the maximum concentration tested: 19 ^c %

## CCCCc1ccccc1COC(=O)C(O)CC (stereo not shown) [compound 44, 1-(o-Butyl-phenyl)methyl 2-hydroxybutyrate]
wild-type CqsS
  fold less active (higher EC50) than C8-ester-CAI-1 (9): > 278 fold
  QS activity (in words): very weak responses

## CCCCCc1cccc(COC(=O)C(O)CC)c1 (stereo not shown) [compound 46, 1-(m-Pentyl-phenyl)methyl 2-hydroxybutyrate]
wild-type CqsS
  fold less active (higher EC50) than C8-ester-CAI-1 (9): > 9 fold

## CCc1ccccc1CCCOC(=O)C(O)CC (stereo not shown) [compound 49, 3-(o-Ethyl-phenyl)propyl 2-hydroxybutyrate]
wild-type CqsS
  fold less active (higher EC50) than C8-ester-CAI-1 (9): > 278 fold
  maximal % response at the maximum concentration tested: 28 ^c %
  QS activity (in words): very weak responses
